Results on two compounds are retold here after patent publication US10308631B2, “Selective anti-cancer compounds” (NATIONAL UNIVERSITY OF SINGAPORE, priority 2015, dated 2019).

In one experiment the test system is MKN45. Put plainly: MTT growth inhibition (GI50). The note with it: Homo sapiens, MKN-45, MKN45, gastric cancer, 72 h. It is filed as cell-based. Here is the method: Having shown that Compound 1 and its derivatives are effective against HeLa cervical cancer cells and human fibroblast BJ cell lines, Compound 1 was then tested against a panel of thirty different human cancer cells lines derived from gastric, colon, liver, breast, lung and cervical tumours and five different human normal cell lines, which were normal fibroblast cell lines (BJ normal, IMR90, WI38) and retinal pigmented epithelium cell lines (ARPE-19, hTert-immortalized RPE-1).
The cell lines detailed in Table 2, below, were cultured in the media shown and treated with Compound 1 at a range of different concentrations (from 0.1 μM to 10 μM) for 72 h in triplicate and a mean concentration value for Compound 1 to achieve 50% growth inhibition (GI50) in each cell line was determined by use of the MTT assay.
The MTT assay was performed by adding thiazolyl blue tetrazolium bromide (MTT reagent, Invitrogen) at a concentration of 0.5 mg/mL to each cell culture and the resulting mixture incubated for 4 h at 37° C. The medium was then removed, and the blue dye remaining in each well was dissolved in DMSO by mixing with a microplate mixer. The absorbance of each well at 540 nm and 660 nm was measured using a microplate reader (Benchmark plus, BIO-RAD). The optical density (OD) values were calculated by subtracting the absorbance at 660 nm from the absorbance at 540 nm. Mean OD values from control cells containing only DMSO treated wells were set as 100%. The resulting GI50 values (in μM) are set out in Table 2 below.

Experiment [1] concerns normal cell lines (panel of five). Put plainly: MTT growth inhibition, mean over normal cell line panel. It is filed as cell-based. The note with it: Homo sapiens, 72 h. Here is the method:
FIG. 7 is a graphical representation showing that Compound 1 (a131) induces selective cell growth inhibitory effects in a broad spectrum of human cancer cells. A panel of cancer and normal cell lines were treated with Compound 1 (a131) for 72 h and a mean G150 value (the concentration required to achieve 50% growth inhibition) was determined. A Student's t-test indicated a statistically significant difference at p<0.05 (p=0.017) between normal cells and cancer cells treated with Compound 1 (a131). […]
The MTT assay was performed by adding thiazolyl blue tetrazolium bromide (MTT reagent, Invitrogen) at a concentration of 0.5 mg/mL to each cell culture and the resulting mixture incubated for 4 h at 37° C. […] The absorbance of each well at 540 nm and 660 nm was measured using a microplate reader (Benchmark plus, BIO-RAD). The optical density (OD) values were calculated by subtracting the absorbance at 660 nm from the absorbance at 540 nm. […]

For experiment [2], the system named is non-transformed normal BJ cells. In words: Immunofluorescence of chromosome alignment, bipolar spindle and spindle poles. It is filed as cell-based, human. The note with it: 2.5 μM, 4 h, then MG132 1.5 h. Here is the method:
(§1) A: is a histogram showing isogenic non-transformed and oncogene-transformed BJ cells stably expressing GFP-tagged Histone H2B as a marker for chromosome segregation, treated with Compound 1 (a131) at 2.5 μM final concentration. Mitotic progression of these cells was monitored every 10 min. More than 100 cells per condition were quantified and classified into 3 groups: no, mild and severe mitotic defects with prolonged mitotic arrest, chromosome mis-segregation and failure in cytokinesis. […] The bars represent 5 μm in length. C: is a histogram showing quantification of defects in spindle formation and chromosome alignments (n>100 cells per condition).
(§2) To investigate why massive chromosome mis-segregation occurs in oncogene-transformed BJ cells when treated with Compound 1, but not in non-transformed BJ cells, the effects of Compound 1 were studied on isogenic BJ cell lines (transformed and non-transformed) that stably express GFP-Histone H2B. Cells cultured in accordance with Biology Example 3 were treated with Compound 1 at 2.5 μM final concentration for 4 h followed by MG132 for another 1.5 h to allow chromosome alignment. […]

For experiment [3], the system named is oncogene-transformed BJ cells. The experiment is described as above. It is filed as cell-based, human. The note with it: 2.5 μM, 4 h, then MG132 1.5 h. On the procedure:
as §1, §2

The test system of a further experiment is HCT-15 tumour sections. In words: Immunofluorescence analysis of xenograft tumour sections. Type of experiment: in vivo, mice. The note with it: 80 mg/kg, 12 days, vs control vehicle. Here is the method: A, B: is a graphical representation of tumour volumes estimated periodically as indicated. Mice bearing established tumour xenografts using HCT15 or MDA-MB-231 cells were treated orally (PO) or intraperitoneally (IP) twice a day with the indicated doses of Compound 1 or Compound 16 for 12 or 15 days. Paclitaxel (PTX) was given intravenously at dose of 40 mg/kg, 3 times every 4 days. Error bars show ±S.D. from mean tumour volumes obtained from 6 mice. Student's t-test was performed to determine the statistical significance (*=p<0.005). C: is a bar graph showing quantification of cells (n>100 per condition) with misaligned chromosomes and multipolar mitotic-spindles. […] tumour sections treated with Compound 16 (80 mg/kg) or control vehicle for 12 days were stained with anti-β-tubulin antibodies and DAPI. The percentage of cells with misaligned chromosomes and multipolar mitotic-spindles was quantified and plotted with mean values±S.D.
To confirm the antimitotic efficacy of Compound 16 (b5) in vivo, immunofluorescence analysis of HCT-15 tumor sections treated with Compound 16 (80 mg/kg) or control vehicle for 12 days were stained with anti-β-tubulin antibodies and DAPI.

Each structure is given as a SMILES string.

One may read the GI50 as the concentration that inhibits growth by half. For the compound `N#C/C(=C\c1cccc2cnccc12)c1c[nH]c2ccccc12` [Compound 1, (Z)-2-(1H-indol-3-yl)-3-(isoquinolin-5-yl)acrylonitrile], the GI50 in the experiment on MKN45 amounted to 1 µM; in experiment [1], 6.5 µM. Also, the “chromosome alignment and spindle formation” value in experiment [2] is reported as “did not show marked defects in chromosome alignment”; in experiment [3], “massively misaligned chromosomes with the formation of multipolar spindles”.
`CN1CCN(CC(=O)n2cc(/C(C#N)=C/c3cccc4cnccc34)c3ccccc32)CC1` [Compound 16, (Z)-3-(isoquinolin-5-yl)-2-(1-(2-(4-methylpiperazin-1-yl)acetyl)-1H-indol-3-yl)acrylonitrile]: the “cancer cells with misaligned chromosomes and multipolar mitotic-spindles” value in the experiment with HCT-15 tumour sections is “significantly increased the number of cancer cells harbouring massively misaligned chromosomes with multipolar mitotic-spindles”.
